Experimental data published in patent US20080125377A1, “DELIVERY SYSTEM FOR ANTIANGIOGENIC AND ANTIINFLAMMATORY PHARMACEUTICALS AND METHOD OF USE” (priority 2006, published 2008).
pEC50: −log10 of the molar value. Entries after “also recorded” stand apart in the source; their conditions may differ.

What was measured:
[1] = Ocular tolerability following a single intravitreal administration in pigmented rabbits; format: in vivo
Procedure: BOL-303213-X In HPMC Suspension. Evaluation of Ocular Tolerability Following a Single Intravitreal Administration in Pigmented Rabbits.
Purpose: The aims of this study were to determine the ocular tolerability and pharmacokinetics of BOL-303213-X in Hydroxy Propyl Methyl Cellulose (HPMC) suspension after a single intravitreal injection at 4 doses: 10, 15, 20 and 30 μg.
Methods: One hundred and two rabbits were allocated into four-dose groups (group 1: 10 μg, group 2: 15 μg, group 3: 20 μg and group 4: 30 μg of BOL-303213-X in HPMC suspension) and one control group (HPMC). Each group was divided in four time-points (15 min, Days 1, 3 and 5) except the control group (one time-point: Day 5). Each animal received an intravitreal injection of test article (50 μl) in the right eye. Tolerability was evaluated by slit lamp examination, anterior chamber inflammation (flare) by laser flare measurements (LFM), intraocular pressure measurements and integrity of the blood retinal barrier (BRB) by vitreous fluorophotometry. These examinations were performed before injection and, on Days 1, 3 and 5. Results: The general behavior of animals was not altered by the treatment. […] No relevant complications were found during the clinical follow-up. […] The blood-retinal barrier was not affected by the different injections. […] There was no difference in IOP between the BOL-303213-X injected and control eyes at any time points.

[2] = tested on: laser-induced choroidal neovascularization; experiment: Laser-induced choroidal neovascularization in cynomolgus monkeys (fluorescein angiography grading); format: in vivo, cynomolgus monkeys (Macaca fascicularis)
Text: BOL-303213-X/HPMC Suspension: Evaluation of Efficacy in Monkeys Using a Laser-Induced Choroidal Neovasuclarization Model.
Purpose: This study was done to qualitatively evaluate the potential inhibitory effect of BOL-303213-X on laser-induced choroidal neovascularization in cynomolgus monkeys when administered biweekly by intravitreal injection beginning at the time of laser treatment.
Methods: Eight cynomolgus monkeys (Macaca fascicularis) were used in this study. The animals were assigned to the study using a computerized procedure designed to achieve body weight balance with respect to groups. The animals were anesthetized with ketamine and xylazine and the eyes dilated with a mydriatic. The macula of both eyes of each animal received laser photocoagulation treatment using a 532 nm diode green laser and slit lamp delivery system and a plano fundus contact lens. This is a standard method for inducing choroidal neovascularization. Nine areas were symmetrically placed in the macula of each eye. The laser parameters included a 75 micron spot size, 0.1 second duration at power settings ranging from 400 to 750 mW. […] Fuorescein angiograms were evaluated according to the following grading system for evidence of excessive permeability (i.e. fluorescein leakage). […]

[3] = tested on: human choroid explant outgrowths; experiment: Human choroid explant outgrowth assay (ex vivo); format: cell-based; conditions: human choroidal outgrowth assay
Procedure: (§1) Objective: The present study was conducted to evaluate the ability of a novel tyrosine kinase inhibitor, BOL-303213-X, to prevent vascular endothelial cell proliferation in vitro using human retinal, choroidal, and dermal microvascular endothelial cells, as well as bovine retinal endothelial cells. Inhibition of outgrowths in a human choroid explant assay was also used to evaluate BOL-303213-X activity in a more complex multi-cellular angiogenesis ex vivo model. Furthermore, caspase-3/7 and lactate dehydrogenase (LDH) activities were also determined following treatment of human retinal and choroidal endothelial cells with BOL-303213-X as a preliminary measure of cytotoxicity. Methods: Human retinal and choroidal vascular endothelial cells were isolated and cultured from human donor eyes. Human dermal microvascular endothelial cells and bovine retinal endothelial cells were purchased from commercial sources. Vascular endothelial cell proliferation was measured by comparing the number of viable cells using a commercial cell viability assay kit. Inhibition of choroid outgrowths was evaluated in a human explant assay. Caspase-3/7 and LDH activities were utilized to assess cytotoxicity.

[4] = Ocular tolerability in the rabbit VEGF efficacy study (slit-lamp, laser flare, IOP); format: in vivo
Procedure: (§2) To expand the efficacy observation of BOL-303213-X in non-ocular system, an ocular efficacy study was conducted in rabbits that included ocular observations to evaluate tolerance of intravitreal administration of BOL-303213-X in hydroxypropyl methylcellulose (HPMC). A rabbit model of blood-retinal barrier (BRB) breakdown induced by intravitreal administration of recombinant human vascular endothelial growth factor (rhVEGF) was used. This model mimics pathologic situations such as macular edema, in which VEGF contributes to increased retinal vascular permeability resulting in edema. In this study 30 μg BOL-303213-X in 50 μl of HPMC was given 3 or 5 days before the VEGF challenge with the evaluation of the BRB integrity also at 2 days after the VEGF challenge.
(§3) Methods: Eighty four (84) pigmented rabbits were allocated into 8 groups: three groups were given an intravitreal injection (50 μl) of BOL-303213-X (30 μg) in HPMC, three groups were given an intravitreal injection of HPMC vehicle and two groups were given no treatment. The rhVEGF 165 challenge was performed three days after the treatment injection to three groups (BOL-303213-X-treated, vehicle-treated, and untreated). The rhVEGF 165 challenge was also performed at five days after the treatment injection to four groups (BOL-303213-X-treated, vehicle-treated (n=2), and untreated). One group served as control for the tolerability of BOL-303213-X injection. Breakdown of the blood-retinal barrier was evaluated 24 h (one vehicle-treated group) and 48 h (the other six groups) after rhVEGF 165 challenge by fluorescein leakage from retinal vasculature into the vitreous using non-invasive scanning ocular fluorophotometry. Assessment of tolerability was evaluated by slit-lamp examination, laser flare measurements (LFM) of anterior chamber using a laser flare meter, intraocular pressure (IOP) measurements using a pneumotonometer and vitreo-retinal fluorophotometry. These examinations were performed before injection, before the rhVEGF165 challenge and the day of euthanasia. Results: The general behavior of animals was not altered by the treatment. […] No relevant complications were found during the clinical follow-up.

[5] = tested on: human retinal endothelial cells; experiment: Vascular endothelial cell proliferation (cell viability assay kit), human retinal endothelial cells; format: cell-based; conditions: dose-dependent
Procedure: as §1

[6] = tested on: human retinal endothelial cells; experiment: Cytotoxicity (caspase-3/7 and LDH activities), confluent human retinal endothelial cells; format: cell-based; conditions: range of concentrations used for efficacy testing
Procedure: as §1

[7] = tested on: human choroidal endothelial cells; experiment: Cytotoxicity (caspase-3/7 and LDH activities), confluent human choroidal endothelial cells; format: cell-based; conditions: range of concentrations used for efficacy testing
Procedure: as §1

[8] = tested on: rhVEGF165-induced blood-retinal barrier breakdown; experiment: Blood-retinal barrier breakdown induced by rhVEGF165 in pigmented rabbits (vitreous fluorophotometry); format: in vivo
Procedure: as §2
BOL-303213-X/HPMC Suspension: Evaluation of Efficacy in Pigmented Rabbits Using a Model of Blood-Retinal Barrier Breakdown Induced by VEGF.
Purpose: The aim of this study was to evaluate the efficacy of BOL-303213-X (30 μg) in hydroxypropyl methylcellulose (HPMC) suspension in pigmented rabbits using a model of blood-retinal barrier breakdown induced by rhVEGF 165.
as §3

[9] = tested on: Human retinal endothelial cells (HREC); experiment: Network formation assay in Matrigel, human retinal endothelial cells (HREC); format: cell-based; conditions: 1% FBS-RF6A medium, 20 ng/ml rhVEGF, 24 hours, approximate, read-out: ED50, inhibition of network formation of human retinal endothelial cells in Matrigel
Procedure: Evaluation of Efficacy of BOL-303213-X In Human Retinal Endothelial Cells (HREC) Using the Network Formation Assay in Matrigel.
Objective: This study was conducted to evaluate the ability of a novel tyrosine kinase inhibitor, BOL-303213-X, to prevent vascular endothelial cell network formation in an in vitro angiogenesis model—network formation assay in Matrigel.
Methods: Human retinal vascular endothelial cells were isolated and cultured from human donor eyes and characterized by Dio-Ac-LDL uptake. Cell network formation was evaluated after these cells were cultured in Matrigel in 1% FBS-RF6A medium with 20 ng/ml rhVEGF and various doses of BOL-303213-X (30, 60, 200, 600 and 1200 nM) for 24 hours. Cell isolates and cultures from three separated donors were used. The total cell network areas were computed by an image analysis software.

[10] = tested on: human dermal microvascular endothelial cells; experiment: Vascular endothelial cell proliferation (cell viability assay kit), human dermal microvascular endothelial cells; format: cell-based; conditions: dose-dependent
Procedure: as §1

[11] = tested on: bovine retinal endothelial cells; experiment: Vascular endothelial cell proliferation (cell viability assay kit), bovine retinal endothelial cells; format: cell-based; conditions: dose-dependent
Procedure: as §1

[12] = tested on: human choroidal endothelial cells; experiment: Vascular endothelial cell proliferation (cell viability assay kit), human choroidal endothelial cells; format: cell-based; conditions: dose-dependent
Procedure: as §1

[13] = Tolerability of intravitreal BOL-303213-X in HPMC in cats; format: in vivo; conditions: intravitreal 10 μg in HPMC, statement also covers four pharmacokinetic studies, visible aggregates in vitreous in certain studies
[14] = 10-30 μg in HPMC, single intravitreal injection

For `CC(C)Cn1c2ccc(Nc3ncccn3)cc2c2c3c(c4c(c21)CCc1nn(C)cc1-4)C(=O)NC3` [BOL-303213-X], which “Toxicity by clinical examination, laser flare and IOP measurements” value ([1]; 10, 15, 20, 30 μg in HPMC, single intravitreal injection 50 μl) is on record?
The value was “no evidence of toxicity”.

And the “Clinical observation in the vitreous following the intravitreal injection” value ([1]; 10-30 μg in HPMC suspension)?
Its value is “small aggregate of drug precipitates”.

And the “Blood-retinal barrier integrity (vitreous fluorophotometry)” value [1, 14]?
Its value is “not affected”.

And the “Body weights of the animals” value [1, 14]?
The value was “within a normal range”.

And the “General behavior of animals” value [1, 14]?
Its value is “not altered”.

And the Anterior chamber inflammation ([1]; 1 day after the injection, not dose-dependent)?
The Anterior chamber inflammation was “transient anterior inflammation”.

What about the “Animals with some inflammatory cells in the vitreous cavity at fundus examination” value ([1]; Day 5, at least 1 animal of each group (control group included)) of the same compound?
The value was 9 rabbits out of 30.

What about the Overall safety conclusion ([1]; HPMC suspension at 10, 15, 20 and 30 μg-doses, normal pigmented rabbit) of the same compound?
Its Overall safety conclusion is “appeared to be safe”.

And the “IOP, injected vs control eyes” value ([1]; any time points)?
The value was “no difference”.

What about the “Percent of grade IV lesions vs HPMC-vehicle contralateral eye” value ([2]; 45 μg in HPMC intravitreal after laser and two weeks post-laser, 2, 3 and 4 weeks post-laser) of the same compound?
Its value is “consistently lower”.

And the “Inhibition of choroidal neovascularization (in words)” value ([2]; 45 μg in HPMC suspension, injected after laser challenge)?
Its value is “effective at inhibiting choroidal neovascularization”.

And the “Inhibition of choroid outgrowths” value [3]?
Its value is “effective in inhibiting choroid outgrowths”.

And the Ocular tolerance observations ([4]; 30 μg in 50 μl HPMC intravitreal, except some eyes with blurred vitreous)?
Its Ocular tolerance observations is “no observed tolerance concerns”.

And the “Body weights of the animals” value ([4]; 30 μg in HPMC, intravitreal)?
The value was “within a normal range”.

What about the “General behavior of animals” value ([4]; 30 μg in HPMC, intravitreal) of the same compound?
The value was “not altered”.

What about the “Toxicity by slit-lamp examination, laser flare and IOP measurements” value ([4]; 30 μg in HPMC, single intravitreal injection) of the same compound?
Its value is “no evidence of toxicity”.

What about the Overall safety conclusion ([4]; HPMC suspension at 30 μg-dose, normal pigmented rabbits) of the same compound?
The Overall safety conclusion was “appeared to be safe”.

What about the Inhibition of proliferation [5] of the same compound?
The Inhibition of proliferation was “inhibited proliferation”.

What about the Caspase-3/7 activity [6] of the same compound?
The Caspase-3/7 activity was “no significant increase”.

And the LDH activity [6]?
Its LDH activity is “no significant increase”.

And the Caspase-3/7 activity [7]?
The Caspase-3/7 activity was “no significant increase”.

And the LDH activity [7]?
Its LDH activity is “no significant increase”.

What about the “Effect on VEGF-induced retinal vascular permeability / blood-retinal barrier breakdown (in words)” value ([8]; 30 μg in 50 μl HPMC intravitreal, 3 days before VEGF challenge) of the same compound?
Its value is “significantly reduced; also recorded: effective at blocking”.

And the “Inhibition of vitreous fluorescein leakage vs rhVEGF165 plus HPMC vehicle” value ([8]; 30 μg in 50 μl HPMC intravitreal, 3 days before rhVEGF165 challenge, read 48 h after challenge, p=0.04)?
Its value is 52.7%.

And the “Vitreous fluorescein leakage (mean±SD, n=12)” value ([8]; 30 μg in HPMC intravitreal, 3 days before rhVEGF165 challenge, read 48 h after challenge)?
The value was 8,458.8±7,067.4.

What about the “Vitreous fluorescein leakage (mean±SD, n=12)” value ([8]; 30 μg in HPMC intravitreal, 5 days before rhVEGF165 challenge) of the same compound?
Its value is 15,228.2±10,364.6.

What about the “Inhibition of vitreous fluorescein leakage vs vehicle” value ([8]; 30 μg in HPMC intravitreal, 5 days before rhVEGF165 challenge, trend, not statistically significant (p>0.05)) of the same compound?
Its value is 57.7%.

What about the pEC50 [9] of the same compound?
Its pEC50 is ~6.74.

What about the Inhibition of proliferation [10] of the same compound?
The Inhibition of proliferation was “inhibited proliferation”.

And the Inhibition of proliferation [11]?
The Inhibition of proliferation was “inhibited proliferation”.

What about the Inhibition of proliferation [12] of the same compound?
The Inhibition of proliferation was “inhibited proliferation”.

And the Ocular tolerability [13]?
The Ocular tolerability was “no major ocular tolerance concerns”.
